From ChEMBL document CHEMBL1130883, “Modeling, synthesis and biological activity of novel antifungal agents (1)” (Bioorg Med Chem Lett, 1998)
In brackets after ≈: the same amount, converted by molar mass.

Experiments:
Cryptococcus neoformans = test: Compound was tested in vitro for antifungal activity against Cryptococcus neoformans (CY1057)
Candida albicans [1] = test: Compound was tested in vitro for antifungal activity against Candida albicans (CY3003); assay type: functional
Aspergillus fumigatus [2] = test: Compound was tested in vitro for antifungal activity against Aspergillus fumigatus (CF1004); assay type: functional
Aspergillus fumigatus [3] = test: Compound was tested in vitro for antifungal activity against Aspergillus fumigatus (CF1004) in experiment 2; assay type: functional
Candida albicans [4] = test: Compound was tested in vitro for antifungal activity against Cryptococcus neoformans (CY1057) in experiment 2; assay type: functional
[5] = target: Lanosterol 14-alpha demethylase (Candida albicans) (UniProt P10613); test: In vitro inhibition of cytochrome P450 lanosterol C14 demethylase in Candida albicans CY1005
Lanosterol 14-alpha demethylase (Candida albicans), sequence (P10613 whole entry, looked up): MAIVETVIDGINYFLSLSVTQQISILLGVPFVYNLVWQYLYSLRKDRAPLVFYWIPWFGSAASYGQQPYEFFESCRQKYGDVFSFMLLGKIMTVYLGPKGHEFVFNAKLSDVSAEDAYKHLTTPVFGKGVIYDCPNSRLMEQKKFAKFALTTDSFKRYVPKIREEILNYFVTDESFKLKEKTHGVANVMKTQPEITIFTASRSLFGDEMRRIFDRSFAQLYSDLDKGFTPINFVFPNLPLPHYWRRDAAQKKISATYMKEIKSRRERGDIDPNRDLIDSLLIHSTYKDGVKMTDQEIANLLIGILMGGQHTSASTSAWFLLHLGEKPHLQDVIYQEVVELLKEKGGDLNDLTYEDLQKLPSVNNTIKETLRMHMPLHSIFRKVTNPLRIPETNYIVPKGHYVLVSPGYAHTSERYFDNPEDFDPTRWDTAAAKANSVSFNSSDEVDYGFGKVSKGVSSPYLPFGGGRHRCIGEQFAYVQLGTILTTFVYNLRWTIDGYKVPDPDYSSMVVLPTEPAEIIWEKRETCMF

| SMILES | IC80 (Cryptococcus neoformans) [µg/mL] | IC80 (Candida albicans [1]) [µg/mL] | IC80 (Aspergillus fumigatus [2]) [µg/mL] | IC80 (Aspergillus fumigatus [3]) [µg/mL] | IC80 (Candida albicans [4]) [µg/mL] | IC50 [5] [µg/mL] |
| --- | --- | --- | --- | --- | --- | --- |
| CCc1ccc(CC[C@@H]2CCC(C)(C)/C(=N/O)[C@H]2Cn2cncn2)cc1 | 130 (≈ 367 µM) | 0.023 (≈ 0.0649 µM) | 0.0011 (≈ 0.0031 µM) |  |  |  |
| CC1(C)CC[C@@H](COc2ccc(OC(F)(F)F)cc2)[C@H](Cn2cncn2)C1OCCO (stereo partly specified) | 5.2 (≈ 11.7 µM) | 0.39 (≈ 0.879 µM) | 110 (≈ 248 µM) |  |  |  |
| CCc1ccc(CC[C@@H]2CCC(C)(C)/C(=N/OC)[C@H]2Cn2cncn2)cc1 | 0.48 (≈ 1.3 µM) | 0.024 (≈ 0.0651 µM) | 0.064 (≈ 0.174 µM) |  |  |  |
| CCc1ccc(CC[C@@H]2CCC(C)(C)C(OCCO)[C@H]2Cn2cncn2)cc1 (stereo partly specified) | 0.36 (≈ 0.934 µM) | 0.00086 (≈ 0.00223 µM) | > 200 |  |  |  |
| CC(=O)c1ccc(CC[C@@H]2CCC(C)(C)/C(=N/O)[C@H]2Cn2cncn2)cc1 | > 200 | > 200 | 60 (≈ 163 µM) |  |  |  |
| OC(Cn1cncn1)(Cn1cncn1)c1ccc(F)cc1F [FLUCONAZOLE] | 6.2 (≈ 20.2 µM) | 1.3 (≈ 4.24 µM) | 150 (≈ 490 µM) | > 200 | 2.6 (≈ 8.49 µM) |  |
| CC1(C)CC[C@@H](COc2ccc(OC(F)(F)F)cc2)[C@H](Cn2cncn2)/C1=N\O | > 200 | 0.35 (≈ 0.849 µM) | 0.17 (≈ 0.412 µM) |  |  |  |
| CC(O)c1ccc(CC[C@@H]2CCC(C)(C)/C(=N/O)[C@H]2Cn2cncn2)cc1 (stereo partly specified) | > 200 | > 200 | 21 (≈ 56.7 µM) |  |  |  |
| CCc1ccc(CC[C@@H]2CCC(C)(C)[C@H](OC)[C@H]2Cn2cncn2)cc1 | 0.74 (≈ 2.08 µM) | 0.0042 (≈ 0.0118 µM) | > 200 |  |  | 0.01 (≈ 0.0281 µM) |
| CO/N=C1\[C@@H](Cn2cncn2)[C@H](COc2ccc(OC(F)(F)F)cc2)CCC1(C)C | 7.6 (≈ 17.8 µM) | 0.12 (≈ 0.281 µM) | 0.4 (≈ 0.938 µM) |  |  |  |
| COC1[C@@H](Cn2cncn2)[C@H](COc2ccc(OC(F)(F)F)cc2)CCC1(C)C (stereo partly specified) | 0.51 (≈ 1.23 µM) | 0.18 (≈ 0.435 µM) | 56 (≈ 135 µM) |  |  |  |
